# Test results taken from publication PMC8955938, “c-Myc Protein Level Affected by Unsymmetrical Bisacridines Influences Apoptosis and Senescence Induced in HCT116 Colorectal and H460 Lung Cancer Cells” (International Journal of Molecular Sciences, 2022).
# Values joined by “and” are separate entries in the source; they are usually repeats but may differ in a detail not shown here. Equal entries are not always repeated.
# Columns and labels:
# Format in all cases: cell-based, human
# H460 cells [1] = assay: Cell cycle analysis (PI, flow cytometry), H460; conditions: H460, IC90 doses
# Protocol: After drug treatment, trypsinized and floating cells (2 × 10^6) were pooled, washed twice with ice-cold PBS and fixed in 70% (v/v) ethanol overnight at −20 °C. Cells were stained with propidium iodide (PI) (BD Biosciences, San Jose, CA, USA) and monitored by FACS Accuri C6 (BD Biosciences, San Jose, CA, USA).
# H460 cells [2] = assay: Annexin V/PI dual staining, H460; conditions: H460, IC90 doses; for necrotic cells (stained only with PI): during the incubation time
# Protocol: Annexin V–FITC binding was performed with an Annexin-V Fluos Staining kit (BD Biosciences, San Jose, CA, USA) according to manufacturer’s protocol. Briefly, after drug treatment, HCT116 and H460 cells (1 × 10^6) were trypsinized, washed twice with ice-cold PBS, pelleted and resuspended in 100 µL of binding buffer containing Annexin-V–FITC and PI. Cells were incubated for 15 min at room temperature in the dark, then diluted with 400 µL of binding buffer and analyzed by flow cytometry with FACS Accuri C6 (BD, San Jose, CA, USA). Cells with low FITC and PI fluorescence were considered viable. Cells that presented high FITC fluorescence but low PI fluorescence were regarded as early apoptotic. Late apoptotic cells presented high FITC and PI fluorescence. Necrotic cells had low FITC fluorescence and high PI fluorescence.
# H460 cells [3] = assay: Mitochondrial transmembrane potential (JC-1), H460; conditions: H460, IC90 doses, 120 h
# Protocol: Changes in the mitochondrial membrane potential (ΔΨm) were analyzed by flow cytometry using 5,5′,6,6′-tetrachloro-1,1′,3,3′-tetraethylbenzimidazolyl-carbocyanine iodide, JC-1 (BD Biosciences, San Jose, CA, USA) according to manufacturer’s specification. Briefly, after treatment, HCT116 and H460 cells (1 × 10^6) were trypsinized, pelleted, resuspended in media and stained with JC-1 for 15 min at 37 °C. After staining, cells were washed twice with assay buffer and analyzed by flow cytometry with FACS Accuri C6 (BD, San Jose, CA, USA). The loss of ΔΨm was monitored based on the decrease in JC-1 red fluorescence concurrent with the increase in green fluorescence.
# [4] = tested on: MYC gene expression in H460 cells; assay: RT-PCR MYC expression in H460; conditions: H460, IC90 doses; for relative mRNA level of MYC gene: with time of incubation up to 120 h
# Protocol: (§1) HCT116, H460, CCD 841 CoN and MRC-5 cells after treatment with UAs were collected, washed twice with ice-cold PBS and resuspended in […] of PBS. mRNA was isolated using High Pure RNA Isolation Kit according to the manufacturer’s instructions (Roche, Basel, Switzerland). Briefly, cells were lysed in lysis-binding buffer and transferred to a filter tube. Contaminating DNA was removed by 15 min incubation of the filter tube with DNase I solution. The filter tube was washed once with buffer I and twice with buffer II, and after centrifugation, total RNA was eluted using the elution buffer. RNA concentration was determined by NanoDrop One (Thermo Scientific); 1 µg of RNA was reverse transcribed using Transcriptor First Strand cDNA Synthesis Kit according to the manufacturer’s instructions (Roche) in 20 µL of reaction containing 1 µg of RNA, […] anchored-oligo(dT)18Primer, 8 mM MgCl2, 20 U of Protector RNase Inhibitor, deoxynucleotide mix (1 mM each) and 22 U of Transcriptor Reverse Transcriptase. The reverse transcription reaction was carried out for 30 min at 55 °C and stopped by heating to 85 °C for 5 min and placing on ice. The cDNA solution was stored at −20 °C until use. Real-time polymerase chain reaction (PCR) was performed on 2 µL of cDNA using 0.2 µM forward and reverse primers on LightCycler® 480 using LightCycler® 480 SYBR Green I Master according to manufacturer’s instructions (Roche). Primers were designed using BLAST website. Their efficiency was checked, and they were ordered from Genomed (Warsaw, Poland). The sequences of primers were as follows: MYC set 1 forward primer, […]; MYC set 1 reverse primer, […]; MYC set 2 forward primer, […]; MYC set 2 reverse primer, […]; KRAS forward primer, […]; KRAS reverse primer, […]; reference gene, GAPDH forward primer ACCCACTCCTCCACCTTTG; and GAPDH reverse primer, CTCTTGTGCTCTTGCTGGG. Cycling conditions were as follows: 1 cycle for 7 min at 95 °C (preincubation), 45 cycles of amplification: 10 s at 95 °C (denaturation), 20 s at 62 °C (annealing), 30 s at 72 °C (extension), 1 cycle for obtaining melting curve and 1 cycle for 10 s at 40 °C (cooling). The results were standardized to the reference gene GADPH. The relative expression level of MYC and KRAS was quantified using comparative method […]. The results were obtained from three independent experiments, each of which was analyzed at least twice.
# [5] = tested on: KRAS gene expression in H460 cells; assay: RT-PCR KRAS expression in H460; conditions: H460, IC90 doses, with time of incubation up to 120 h
# Protocol: as §1
# [6] = tested on: cleaved PARP in H460 cells; assay: PARP cleavage flow cytometry, H460; conditions: H460, IC90 doses
# Protocol: PARP cleavage was determined using Alexa Fluor 647-conjugated anti-cleaved PARP antibody (BD Biosciences, San Diego, CA, USA) according to the manufacturer’s instructions. Briefly, HCT116 and H460 cells (1 × 10^6) were trypsinized, pelleted, washed twice with ice-cold PBS and fixed in Fixation Buffer for 20 min on ice. After fixation, cells were rinsed twice with Perm Wash Buffer, stained with Alexa Fluor 647-conjugated anti-cleaved PARP antibody for 30 min, rinsed with Perm Wash Buffer and analyzed by flow cytometry with FACS Accuri C6 (BD, San Jose, CA, USA).
# H460 cells [7] = assay: Nuclear morphology (Hoechst 33342), H460; conditions: H460, IC90 doses, 72 and 120 h similar level (time not specified)
# Protocol: Nuclear morphology was examined under a fluorescence microscope (OLYMPUS BX60, […]) after staining with Hoechst 33342. Briefly, after drug treatment, HCT116, H460, CCD 841 CoN and MRC-5 cells were spun onto microscopic slides, fixed with methanol:acetic acid (3:1) for 15 min and stained with Hoechst 33342 (1 mg/mL) for 15 min. Cells were regarded as apoptotic based on the presence of condensed, fragmented chromatin. Enlarged cells containing multiple nuclei were considered as typical of mitotic catastrophe.
SMILES,Poli (polyploid cells) (H460 cells [1]; 24 h),cells in G1 (H460 cells [1]; 24 h),cells in G2/M (H460 cells [1]; 24 h),cells in S (H460 cells [1]; 24 h),cells in Sub-G1 (H460 cells [1]; 24 h),Poli (polyploid cells) (H460 cells [1]; 72 h),cells in G1 (H460 cells [1]; 72 h),cells in G2/M (H460 cells [1]; 72 h),cells in S (H460 cells [1]; 72 h),cells in Sub-G1 (H460 cells [1]; 72 h),Poli (polyploid cells) (H460 cells [1]; 120 h),cells in G2/M (H460 cells [1]; 120 h),cells in S (H460 cells [1]; 120 h),cells in Sub-G1 (H460 cells [1]; 120 h),annexin V positive cells (early and late apoptotic) (H460 cells [2]; 120 h),necrotic cells (stained only with PI) (H460 cells [2]),cells with decreased mitochondrial transmembrane potential (ΔΨm) (H460 cells [3]),relative mRNA level of MYC gene [4],relative amount of KRAS mRNA [5],cells with cleaved PARP ([6]; 120 h),other results
CN(CCCNc1c2ccccc2nc2cccc([N+](=O)[O-])c12)CCCNc1ccc2ncn3c4ccccc4c(=O)c1c23 [Compound C-2028],1.70 ± 0.42%,32.92 ± 3.77%,21.64 ± 4.23%,32.74 ± 2.09%,11.09 ± 3.80%,2.11 ± 0.55%,37.15 ± 4.13%,19.21 ± 6.60%,15.80 ± 2.33%,25.45 ± 7.20%,4.03 ± 0.95%,28.98 ± 3.64%,9.93 ± 2.46%,26.84 ± 1.92% and 26.8%,48.7%,≤ 10%,44.3%,stayed at the similar level,remained almost at the same level,about 20%,cells in G1 (H460 cells [1]; 120 h): 29.87 ± 2.31%; apoptotic cells (nuclear morphology) (H460 cells [7]): 24.8%
O=c1c2ccccc2n2cnc3ccc(NCCCN4CCN(CCCNc5c6ccccc6nc6cccc([N+](=O)[O-])c56)CC4)c1c32 [Compound C-2041],1.78 ± 0.42%,31.30 ± 2.48%,23.89 ± 5.34%,34.76 ± 4.78%,8.43 ± 3.14%,2.52 ± 0.71%,42.86 ± 1.87%,21.24 ± 2.69%,16.09 ± 2.94%,17.43 ± 2.40%,2.30 ± 0.60%,14.84 ± 4.06%,11.59 ± 1.16%,36.47 ± 3.18% and 36.5%,35.9%,≤ 10%,46.8%,1.65,remained almost at the same level,about 20%,cells in G1 (H460 cells [1]; 120 h): 35.08 ± 3.65%
Cc1ccc([N+](=O)[O-])c2c(NCCCN(C)CCCNc3ccc4ncn5c6ccc(O)cc6c(=O)c3c45)c3ccccc3nc12 [Compound C-2045],1.78 ± 0.33%,32.25 ± 3.01%,28.15 ± 2.14%,26.56 ± 3.44%,9.84 ± 4.46%,2.05 ± 0.60%,39.94 ± 4.65%,20.87 ± 5.18%,18.53 ± 5.99%,18.66 ± 3.61%,2.28 ± 1.33%,21.49 ± 5.96%,9.03 ± 1.37%,42.42 ± 8.29% and 42.4%,49.4%,,62.5%,around 0.55,around 1.5,28.2%,necrotic cells (A−PI+) (H460 cells [2]; 120 h): ~12%; drop of MYC mRNA level [4]: 50%; cells with cleaved PARP ([6]; 72 h): 53.9%; apoptotic cells (nuclear morphology) (H460 cells [7]): 41.8%
Cc1ccc([N+](=O)[O-])c2c(NCCCN(C)CCCNc3ccc4ncn5c6ccccc6c(=O)c3c45)c3ccccc3nc12 [Compound C-2053],2.76 ± 0.30%,30.44 ± 2.27%,27.37 ± 2.20%,33.77 ± 3.66%,6.28 ± 1.52%,1.73 ± 0.52%,36.08 ± 5.84%,24.96 ± 3.05%,14.09 ± 2.46%,22.37 ± 2.06%,2.39 ± 1.17%,19.77 ± 6.06%,10.78 ± 1.76%,41.51 ± 5.77% and 41.5%,53.1%,≤ 10%,67.8%,around 0.55,~1.7,43.3%,drop of MYC mRNA level [4]: 50%; cells with cleaved PARP ([6]; 72 h): 47.8%; apoptotic cells (nuclear morphology) (H460 cells [7]): 41.6%
